IC50 data for 26 compounds are collected here from patent US9249163B2, “PDE10a inhibitors for the treatment of type II diabetes” (Janssen Pharmaceutica, NV, priority 2013, dated 2016).

Test [1] deals with Rat recombinant PDE10a (rPDE10a) (Rattus norvegicus (Rat), UniProt Q9QYJ6). Description: In vitro assay PDE10a (rat recombinant PDE10a, SPA). It is filed as biochemical. Conditions: 60 nM cAMP, 60 min at rt, read-out: rPDE10a2 IC50. The essentials:
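Rat PDE10a expressed in Sf9 cells (baculovirus) and Ni-sepharose purified. Incubated with compound for 60 min at rt in 50 mM Tris pH 7.8, 8.3 mM MgCl2, 1.7 mM EGTA with 60 nM cAMP plus 0.008 μCi ^3H-cAMP (final), 1% DMSO. Read-out by PDE SPA bead scintillation counting (cpm), no-enzyme blank.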

In test [2] the target is Human recombinant PDE10A2 (Homo sapiens (Human), UniProt Q9Y233). Description: In vitro hPDE10a (human recombinant PDE10A2, scintillation proximity assay). Conditions: human recombinant PDE10A2, 60 nM cAMP, 60 min at room temperature; read-out: hPDE10a2 IC50. It is filed as biochemical. For orientation: SPA uses beads or plates that emit light when radiolabelled molecules are held near them.
Chain of Human recombinant PDE10A2 (Q9Y233 267-1055): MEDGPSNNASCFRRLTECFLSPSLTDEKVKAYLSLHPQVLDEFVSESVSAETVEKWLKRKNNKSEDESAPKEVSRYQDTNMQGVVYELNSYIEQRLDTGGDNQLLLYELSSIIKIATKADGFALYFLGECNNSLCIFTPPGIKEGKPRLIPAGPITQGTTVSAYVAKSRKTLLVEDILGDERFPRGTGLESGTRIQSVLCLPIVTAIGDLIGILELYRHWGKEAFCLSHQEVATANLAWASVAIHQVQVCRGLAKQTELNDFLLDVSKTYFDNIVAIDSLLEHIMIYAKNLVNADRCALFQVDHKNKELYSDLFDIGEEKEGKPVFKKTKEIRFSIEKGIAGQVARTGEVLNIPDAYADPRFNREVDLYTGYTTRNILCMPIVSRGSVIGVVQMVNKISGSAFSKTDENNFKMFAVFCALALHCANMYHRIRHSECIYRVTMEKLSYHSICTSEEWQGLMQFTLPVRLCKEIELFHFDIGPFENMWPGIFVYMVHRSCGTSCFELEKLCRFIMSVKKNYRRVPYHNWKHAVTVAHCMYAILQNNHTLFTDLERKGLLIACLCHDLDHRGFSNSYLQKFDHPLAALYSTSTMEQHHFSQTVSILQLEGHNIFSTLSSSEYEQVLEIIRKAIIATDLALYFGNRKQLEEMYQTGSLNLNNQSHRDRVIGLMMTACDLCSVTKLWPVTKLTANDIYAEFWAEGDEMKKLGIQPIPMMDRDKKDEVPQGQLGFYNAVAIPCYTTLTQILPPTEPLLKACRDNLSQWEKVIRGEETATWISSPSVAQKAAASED

Counter-ions that a name gives are not always drawn.

Chain of Rat recombinant PDE10a (rPDE10a) (Q9QYJ6 whole entry): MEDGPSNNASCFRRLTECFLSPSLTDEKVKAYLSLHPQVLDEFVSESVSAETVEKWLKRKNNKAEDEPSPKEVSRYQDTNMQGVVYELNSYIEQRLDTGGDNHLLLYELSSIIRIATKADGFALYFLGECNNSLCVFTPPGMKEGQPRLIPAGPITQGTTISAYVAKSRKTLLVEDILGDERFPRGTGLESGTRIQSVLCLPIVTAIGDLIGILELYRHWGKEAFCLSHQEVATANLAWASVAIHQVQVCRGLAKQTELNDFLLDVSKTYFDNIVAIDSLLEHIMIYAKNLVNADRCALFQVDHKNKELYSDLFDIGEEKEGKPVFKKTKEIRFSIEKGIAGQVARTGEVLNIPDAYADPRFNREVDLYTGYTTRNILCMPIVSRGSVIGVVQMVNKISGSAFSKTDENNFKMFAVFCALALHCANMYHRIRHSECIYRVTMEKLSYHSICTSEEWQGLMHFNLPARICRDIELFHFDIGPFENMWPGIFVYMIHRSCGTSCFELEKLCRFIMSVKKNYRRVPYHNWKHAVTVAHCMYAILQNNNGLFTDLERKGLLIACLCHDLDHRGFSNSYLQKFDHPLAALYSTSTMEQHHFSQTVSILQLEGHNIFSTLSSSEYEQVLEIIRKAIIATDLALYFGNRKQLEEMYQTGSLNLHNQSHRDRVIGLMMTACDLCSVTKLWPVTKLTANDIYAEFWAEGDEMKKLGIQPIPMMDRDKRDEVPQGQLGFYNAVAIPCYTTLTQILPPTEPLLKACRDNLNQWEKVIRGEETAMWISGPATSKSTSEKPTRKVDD

Regarding `c1ccc2nc(OCc3cn4c(-c5ccc(-c6nnn[nH]6)cc5)cnc(N5CCOCC5)c4n3)ccc2c1` [Cpd 90, 4-(5-(4-(1H-Tetrazol-5-yl)phenyl)-2-((quinolin-2-yloxy)methyl)imidazo[1,2-a]pyrazin-8-yl)morpholine], the figures for the IC50 in test [1] and in test [2] were 1 nM and 2 nM, respectively.

`Oc1nc2ncc(-c3cnc(N4CCOCC4)c4nc(/C=C/c5ccc6ccccc6n5)cn34)cc2[nH]1` [Cpd 94, (E)-6-(8-Morpholino-2-(2-(quinolin-2-yl)vinyl)imidazo[1,2-a]pyrazin-5-yl)-3H-imidazo[4,5-b]pyridin-2-ol]: the values for the IC50 in test [1] and in test [2] were 3 nM and 8 nM, respectively.

With `C(=C\c1cn2c(-c3ccc(-c4nnn[nH]4)nc3)cnc(N3CCOCC3)c2n1)/c1ccc2ccccc2n1` [Cpd 96, (E)-4-(5-(6-(1H-Tetrazol-5-yl)pyridin-3-yl)-2-(2-(quinolin-2-yl)vinyl)imidazo[1,2-a]pyrazin-8-yl)morpholine], the half-maximal inhibitory concentration (IC50) is less than 1 nM in test [1] and 3 nM in test [2].

In the case of `c1ccc2nc(SCc3cn4c(-c5ccc(N6CCNCC6)nc5)cnc(N5CCOCC5)c4n3)ccc2c1` [Cpd 98, 4-(5-(6-(piperazin-1-yl)pyridin-3-yl)-2-((quinolin-2-ylthio)methyl)imidazo[1,2-a]pyrazin-8-yl)morpholine trifluoroacetic acid salt], the results for the IC50 in test [1] and in test [2] were 52 nM and 58 nM, respectively.

On to `c1ccc2nc(N3CC(c4cn5c(-c6ccc(N7CCNCC7)nc6)cnc(N6CCOCC6)c5n4)C3)ccc2c1` [Cpd 99, 4-(5-(6-(piperazin-1-yl)pyridin-3-yl)-2-(1-(quinolin-2-yl)azetidin-3-yl)imidazo[1,2-a]pyrazin-8-yl)morpholine], for which the IC50 in test [1] was determined as 204 nM; in test [2], 224 nM.

As to `c1ccc2nc(OCc3cn4c(-c5ccc(Sc6nnc[nH]6)nc5)cnc(N5CCOCC5)c4n3)ccc2c1` [Cpd 100, 4-(5-(6-((4H-1,2,4-triazol-3-yl)thio)pyridin-3-yl)-2-((quinolin-2-yloxy)methyl)imidazo[1,2-a]pyrazin-8-yl)morpholine], the IC50 in test [1] amounted to 38 nM; in test [2], 29 nM.

For `O=C(O)Cc1ccc(-c2cnc(N3CCOCC3)c3nc(COc4ccc5ccccc5n4)cn23)cn1` [Cpd 101, 2-(5-(8-Morpholino-2-((quinolin-2-yloxy)methyl)imidazo[1,2-a]pyrazin-5-yl)pyridin-2-yl)acetic acid], the figures for the IC50 in test [1] and in test [2] were 20 nM and 15 nM, respectively.

As for `c1ccc2nc(CCc3cn4c(-c5ccc(N6CCNCC6)nc5)cnc(N5CCOCC5)c4n3)ccc2c1` [Cpd 102, 4-(5-(6-(piperazin-1-yl)pyridin-3-yl)-2-(2-(quinolin-2-yl)ethyl)imidazo[1,2-a]pyrazin-8-yl)morpholine trifluoroacetic acid salt], the IC50 amounted to 17 nM in test [1] and 35 nM in test [2].

Take `C(=C\c1ncccn1)/c1cn2c(-c3ccc(N4CCNCC4)nc3)cnc(N3CCOCC3)c2n1` [Cpd 103, (E)-4-(5-(6-(Piperazin-1-yl)pyridin-3-yl)-2-(2-(pyrimidin-2-yl)vinyl)imidazo[1,2-a]pyrazin-8-yl)morpholine]: the figures for the IC50 in test [1] and in test [2] were 617 nM and 676 nM, respectively.

`C(=C\c1ncc2ccccc2n1)/c1cn2c(-c3ccc(N4CCNCC4)nc3)cnc(N3CCOCC3)c2n1` [Cpd 104, (E)-4-(5-(6-(Piperazin-1-yl)pyridin-3-yl)-2-(2-(quinazolin-2-yl)vinyl)imidazo[1,2-a]pyrazin-8-yl)morpholine]: the IC50 in test [1] turned out to be 68 nM; in test [2], 129 nM.

`C(=C\c1cn2c(-c3ccc(N4CCNCC4)nc3)cnc(N3CCOCC3)c2n1)/c1ccc2ccccc2n1` [Cpd 105, (E)-4-(5-(6-(piperazin-1-yl)pyridin-3-yl)-2-(2-(quinolin-2-yl)vinyl)imidazo[1,2-a]pyrazin-8-yl)morpholine trifluoroacetic acid salt]: the IC50 in test [1] was found to be 22 nM; in test [2], 50 nM.

On to `c1ccc2nc(OCc3cn4c(-c5ccc(C6CCNCC6)nc5)cnc(N5CCOCC5)c4n3)ccc2c1` [Cpd 106, 4-(5-(6-(Piperidin-4-yl)pyridin-3-yl)-2-((quinolin-2-yloxy)methyl)imidazo[1,2-a]pyrazin-8-yl)morpholine trifluoroacetic acid salt], for which the results for the IC50 in test [1] and in test [2] were 15 nM and 89 nM, respectively.

`C1=C(c2ccc(-c3cnc(N4CCOCC4)c4nc(COc5ccc6ccccc6n5)cn34)cn2)CCNC1` [Cpd 108, 4-(2-((quinolin-2-yloxy)methyl)-5-(1′,2′,3′,6′-tetrahydro-[2,4′-bipyridin]-5-yl)imidazo[1,2-a]pyrazin-8-yl)morpholine methane sulfonic acid salt]: the values for the half-maximal inhibitory concentration (IC50) in test [1] and in test [2] were 23 nM and 35 nM, respectively.

In the case of `COC1CCN(c2ncc(-c3ccc(N4CCNCC4)nc3)n3cc(COc4ccc5ccccc5n4)nc23)CC1` [Cpd 112, 2-((8-(4-Methoxypiperidin-1-yl)-5-(6-(piperazin-1-yl)pyridin-3-yl)imidazo[1,2-a]pyrazin-2-yl)methoxy)quinoline trifluoroacetic acid salt], the IC50 in test [1] came to 95 nM; in test [2] it was 89 nM.

Turning to `CC(=O)N1CCN(c2ncc(-c3ccc(N4CCNCC4)nc3)n3cc(COc4ccc5ccccc5n4)nc23)CC1` [Cpd 113], the figures for the IC50 in test [1] and in test [2] were 151 nM and 224 nM, respectively.

For `c1ccc2nc(C3CN(c4cn5c(-c6ccc(N7CCNCC7)nc6)cnc(N6CCOCC6)c5n4)C3)ccc2c1` [Cpd 114, 4-(5-(6-(piperazin-1-yl)pyridin-3-yl)-2-(3-(quinolin-2-yl)azetidin-1-yl)imidazo[1,2-a]pyrazin-8-yl)morpholine trifluoroacetic acid salt], the IC50 in test [1] worked out at 2000 nM; in test [2], 1350 nM.

Turning to `O=C1CN(c2ncc(-c3ccc(N4CCNCC4)nc3)n3cc(COc4ccc5ccccc5n4)nc23)CCN1` [Cpd 115, 4-(5-(6-(piperazin-1-yl)pyridin-3-yl)-2-((quinolin-2-yloxy)methyl)imidazo[1,2-a]pyrazin-8-yl)piperazin-2-one trifluoroacetic acid salt], the IC50 in test [1] came to 40 nM; in test [2], 85 nM.

Consider `c1cnc(OCc2cn3c(-c4ccc(N5CCNCC5)nc4)cnc(N4CCOCC4)c3n2)nc1` [Cpd 116, 4-(5-(6-(piperazin-1-yl)pyridin-3-yl)-2-((pyrimidin-2-yloxy)methyl)imidazo[1,2-a]pyrazin-8-yl)morpholine trifluoroacetic acid salt], for which the IC50 in test [1] is 3630 nM; in test [2] it was 2630 nM.

Consider `O=S1(=O)CCN(c2ncc(-c3ccc(N4CCNCC4)nc3)n3cc(COc4ccc5ccccc5n4)nc23)CC1` [Cpd 117, 4-(5-(6-(Piperazin-1-yl)pyridin-3-yl)-2-((quinolin-2-yloxy)methyl)imidazo[1,2-a]pyrazin-8-yl)thiomorpholine 1,1-dioxide trifluoroacetic acid salt], for which the IC50 in test [1] was determined as 32 nM; in test [2] it was 56 nM.

`OC1CCN(c2ncc(-c3ccc(N4CCNCC4)nc3)n3cc(COc4ccc5ccccc5n4)nc23)CC1` [Cpd 118, 1-(5-(6-(Piperazin-1-yl)pyridin-3-yl)-2-((quinolin-2-yloxy)methyl)imidazo[1,2-a]pyrazin-8-yl)piperidin-4-ol trifluoroacetic acid salt]: the 50% inhibitory concentration (IC50) is 30 nM in test [1] and 78 nM in test [2].

For the compound `c1ccc2nc(OCc3cn4c(-c5ccc(N6CCNCC6)nc5)cnc(-c5ccncc5)c4n3)ccc2c1` [Cpd 120, 2-((5-(6-(Piperazin-1-yl)pyridin-3-yl)-8-(pyridin-4-yl)imidazo[1,2-a]pyrazin-2-yl)methoxy)quinoline trifluoroacetic acid salt], the figures for the IC50 in test [1] and in test [2] were 15 nM and 20 nM, respectively.

On to `CN1CCN(c2ncc(-c3cnc(N4CCOCC4)c4nc(COc5ccc6ccccc6n5)cn34)cn2)CC1` [Cpd 123, 4-(5-(2-(4-Methylpiperazin-1-yl)pyrimidin-5-yl)-2-((quinolin-2-yloxy)methyl)imidazo[1,2-a]pyrazin-8-yl)morpholine methane sulfonic acid salt], for which the IC50 in test [1] stood at 8 nM; in test [2], 19 nM.

`c1ccc2nc(OCc3cn4c(-c5ccc(N6CCNCC6)nc5)cnc(N5CCOCC5)c4n3)ncc2c1` [Cpd 124, 4-(5-(6-(Piperazin-1-yl)pyridin-3-yl)-2-((quinazolin-2-yloxy)methyl)imidazo[1,2-a]pyrazin-8-yl)morpholine trifluoroacetic acid salt]: the IC50 in test [1] was found to be 123 nM; in test [2], 115 nM.

For `CN(C)c1ccc(-c2cnc(N3CCOCC3)c3nc(COc4ccc5ccccc5n4)cn23)cn1` [Cpd 127, N,N-Dimethyl-5-(8-morpholino-2-((quinolin-2-yloxy)methyl)imidazo[1,2-a]pyrazin-5-yl)pyridin-2-amine methane sulfonic acid salt], the values for the IC50 in test [1] and in test [2] were 30 nM and 62 nM, respectively.

Take `CN1CCN(c2ccc(-c3cnc(N4CCOCC4)c4nc(COc5ccc6ccccc6n5)cn34)cn2)CC1` [Cpd 130, 4-(5-(6-(4-Methylpiperazin-1-yl)pyridin-3-yl)-2-((quinolin-2-yloxy)methyl)imidazo[1,2-a]pyrazin-8-yl)morpholine]: the IC50 in test [1] amounted to 16 nM; in test [2], 42 nM.

On to `Clc1c(N2CC(c3ccc4ccccc4n3)C2)nc2c(N3CCOCC3)ncc(-c3ccc(N4CCNCC4)nc3)n12` [Cpd 132, 4-(3-Chloro-5-(6-(piperazin-1-yl)pyridin-3-yl)-2-(3-(quinolin-2-yl)azetidin-1-yl)imidazo[1,2-a]pyrazin-8-yl)morpholine trifluoroacetic acid salt], for which the figures for the IC50 in test [1] and in test [2] were 871 nM and 1620 nM, respectively.

As usually defined, the IC50 is the midpoint of a concentration-inhibition curve.
